The record followed here is patent US9868728B2, “Quinazoline derivatives, compositions, and uses related thereto” (Emory University, priority 2010, dated 2018).

pIC50: −log10 of the molar value.

One experiment has as its system human neutrophils. The experiment is described as follows: ROS production in human neutrophils. In kind it is cell-based. The settings on record: Neutrophil, which express the Nox2 system, read-out: IC50 of inhibition of ROS production. An excerpt:
The Nox2 inhibition activity of two compounds is shown in FIG. 1, along with data from the two assay controls.

The target in another experiment is T1, NOX2 (Homo sapiens, UniProt P04839).
T1 construct: isolated plasma membranes from human neutrophils as a source for Nox2-p22phox; from tissue; host or cells: Plasma membranes of human neutrophils (Nox2-p22phox); cytosolic factors recombinant from E. coli
T1 sequence (P04839 2-570 limits assumed): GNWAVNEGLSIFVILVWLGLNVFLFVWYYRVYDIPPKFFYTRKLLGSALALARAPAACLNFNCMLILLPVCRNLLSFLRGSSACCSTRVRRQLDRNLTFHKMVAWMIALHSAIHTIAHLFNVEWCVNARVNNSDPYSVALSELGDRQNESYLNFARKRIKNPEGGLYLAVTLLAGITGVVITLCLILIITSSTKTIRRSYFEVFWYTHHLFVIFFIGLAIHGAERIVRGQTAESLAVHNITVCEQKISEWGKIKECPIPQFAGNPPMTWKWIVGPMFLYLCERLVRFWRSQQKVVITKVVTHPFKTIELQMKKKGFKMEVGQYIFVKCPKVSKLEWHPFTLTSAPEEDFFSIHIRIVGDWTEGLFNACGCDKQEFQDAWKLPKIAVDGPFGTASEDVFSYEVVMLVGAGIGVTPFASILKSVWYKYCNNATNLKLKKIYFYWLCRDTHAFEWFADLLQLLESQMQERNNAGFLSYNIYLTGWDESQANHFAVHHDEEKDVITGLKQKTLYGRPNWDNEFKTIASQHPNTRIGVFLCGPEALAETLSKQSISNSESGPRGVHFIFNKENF
T1 sequence (P13498 2-195 partner limits assumed): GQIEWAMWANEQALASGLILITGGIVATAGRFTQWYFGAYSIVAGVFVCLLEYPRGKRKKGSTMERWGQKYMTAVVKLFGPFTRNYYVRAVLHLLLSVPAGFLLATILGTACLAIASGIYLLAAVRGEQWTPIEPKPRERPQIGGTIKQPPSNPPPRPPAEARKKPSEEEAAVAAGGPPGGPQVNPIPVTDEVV
The experiment is described as follows: Nox2 cell-free assay (LO12 luminescence). The conditions noted are these: Nox2 cell-free system; for pIC50: read-out: NOX2 IC50 (concentration giving half-maximal inhibition); for Emax: read-out: % inhibition (maximum inhibition achieved at a very high concentration of the compound). In kind it is biochemical. The protocol:
The following compounds were tested according to the procedures provided in the experimental section. Assays were carried out using the Nox2 cell-free system. The IC50 value is the concentration giving half-maximal inhibition, while the “% inhibition” shown in parentheses is the maximum inhibition achieved at a very high concentration of the compound. 100% refers to complete inhibition within experimental error of the assay.
In certain assays a Cell-Free recombinant NOX-2 system (consisting of isolated plasma membranes from human neutrophils as a source for Nox2-p22phox, supplemented with recombinant p47phox, p67phox and Rac1Q61L (activated Rac), expressed in and isolated from of E. coli. LO12 luminescence was used as a readout to monitor enzymatic activity.
Plasma membranes were prepared from human neutrophils, which express large amounts of Nox2 and stored at −80 C until use. Membranes are mixed with recombinant, purified cytosolic regulatory proteins (p67Np47 chimera, and constitutively active Rac1 mutant Q61) and FAD, along with varying concentrations of compound, and LO12, which luminesces when it reacts with ROSvi. The reaction is started by addition of NADPH and SDS (an artificial stimulus for Nox2). See Curnutte et al., (1987) J. Biol. Chem. 262: 6450-6452.

For the next experiment, the target named is T2, Nox4 DH (Homo sapiens, UniProt Q9NPH5).
T2 sequence (Q9NPH5 304-578 limits assumed): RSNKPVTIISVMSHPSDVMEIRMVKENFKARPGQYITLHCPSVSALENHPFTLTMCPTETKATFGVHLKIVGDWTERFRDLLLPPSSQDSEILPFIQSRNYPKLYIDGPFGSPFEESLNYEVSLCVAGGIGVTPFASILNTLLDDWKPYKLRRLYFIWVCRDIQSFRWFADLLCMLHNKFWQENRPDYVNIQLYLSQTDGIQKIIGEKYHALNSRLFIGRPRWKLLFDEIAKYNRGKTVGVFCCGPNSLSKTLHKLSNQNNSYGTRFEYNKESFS
The experiment is described as follows: Nox4 DH inhibition kinetics with NADPH. In kind it is biochemical. The settings on record: versus substrate NADPH; major effect on apparent Km, minor effect on Vmax.

In the case of `CN(C)CCCCn1c(SCC(=O)Nc2nc(-c3ccc(Br)cc3)cs2)nc2ccccc2c1=O` [AS158b], the pIC50 is 5.82 in the experiment on human neutrophils and 5.70 at NOX2. Further, the Emax at NOX2 (value in parentheses) was determined as 100%.
On to `O=C(O)CCCn1c(SCC(=O)Nc2nc(-c3ccccc3)cs2)nc2ccccc2c1=O` [AS140], for which the pIC50 on NOX2 was < 5.00.
As for `CCSC1Nc2ccccc2C(=O)N1CCC[N+]1(CC)CCOCC1` (stereo not drawn) [TG6-99-2], the pIC50 at NOX2 was 5.82. Moreover, the Emax on NOX2 (value in parentheses) was 99%.
For `CCN(CC)CCn1c(=S)[nH]c2ccc(Cl)cc2c1=O` [TG6-57], in that order: 5.22 and 80%.
On to `CC(C)n1c(=S)[nH]c2cc(F)c(F)cc2c1=O` [TG6-284-2], for which, on NOX2, the pIC50 was 6.15.
`CSc1nc2ccccc2c(=O)n1CCC[N+](C)(C)C` [TG6-67]: the pIC50 on NOX2 was 5.82. In addition, at NOX2 (value in parentheses), the Emax is 95%.
In the case of `O=c1c2ccccc2[nH]c(=S)n1CCCN1CCOCC1` [TG6-249], the pIC50 at NOX2 was 6.00.
Turning to `CCN(CC)CCn1c(=S)[nH]c2ccccc2c1=O` [TG6-27-2], at NOX2, the pIC50 was 5.26. The Emax at NOX2 (value in parentheses) was found to be 97%.
In the case of `CCOc1cc2c(=O)n(N)c(=S)[nH]c2cc1OC` [AS2-001], the pIC50 at NOX2 was 6.00.
Same read-out and setting: with `Cc1csc(NC(=O)CSc2nc3ccccc3c(=O)n2CCCN(C)C)n1` [TG6-18] the figure was < 5.00.
For `CN(C)CCCn1c(SCC(=O)Nc2nc(-c3ccc(Br)cc3)cs2)nc2ccccc2c1=O` [TG6-37-2], the pIC50 on NOX2 was 5.22. The “% inhibition (maximum inhibition achieved at a very high concentration of the compound)” value at NOX2 (value in parentheses) was found to be 95%.
`CN(C)CCCn1c(=S)[nH]c2ccc(Cl)cc2c1=O.Cl` [TG6-44]: the pIC50 is 5.70 in the experiment with human neutrophils and 6.00 on NOX2. Also, at NOX2 (value in parentheses), the Emax stood at 100%. Also, at Nox4 DH, the “mode of inhibition of Nox4 DH” value is “competitive inhibitor”.
Take `Nn1c(SCC(=O)Nc2nc(-c3ccc(Br)cc3)cs2)nc2ccccc2c1=O` [AS-248]: at NOX2, the pIC50 was 4.90.
Take `COc1ccc(-c2csc(NC(=O)CSc3nc4ccccc4c(=O)n3CCCN(C)C)n2)cc1` [TG6-36-2]: the pIC50 on NOX2 is 4.96. The Emax on NOX2 (value in parentheses) was determined as 95%.
With `CN(C)CCCn1c(SCC(=O)Nc2nc(-c3ccc(Br)cc3)cs2)nc2ccccc2c1=O` [AS158a], on NOX2, the pIC50 was 5.30. At NOX2 (value in parentheses), the Emax stood at 100%.
The corresponding values for `CSc1nc2ccccc2c(=O)n1CCC[N+]1(C)CCOCC1` [TG6-103-1] are 5.82 and 100%.
In the case of `O=c1c2cc(Cl)ccc2[nH]c(=S)n1CCN1CCNCC1` [TG6-170], the pIC50 at NOX2 is 5.70.
Consider `CN(C)CCCn1c(OCC(=O)N2CCOCC2)nc2ccccc2c1=O` [TG6-76], for which the pIC50 at NOX2 is < 4.70.
Same read-out and setting: with `O=c1c2cc(Cl)ccc2[nH]c(=S)n1CCCN1CCCCC1` [TG6-172] the figure was 5.96; with `CN(C)CCCn1c(SCC(=O)Nc2nc(-c3ccc(Br)cc3)cs2)nc2ccsc2c1=O` [AS-256], 4.82.
With `CN(C)CCCn1c(=S)[nH]c2cc(Cl)ccc2c1=O` [TG6-62], on NOX2, the pIC50 is 5.30. Besides, the Emax at NOX2 (value in parentheses) amounted to 90%.
As to `CN(C)CCCn1c(=S)[nH]c2ccc(F)cc2c1=O` [TG6-248], on NOX2, the pIC50 is 6.22.
For `CN(C)CCCn1c(SCC(=O)Nc2nc(-c3cccc(F)c3)cs2)nc2ccccc2c1=O` [TG6-48], the Emax on NOX2 (value in parentheses) was 95%.
For the compound `O=c1c2ccccc2[nH]c(=S)n1CCN1CCCC1` [TG6-52], the pIC50 on NOX2 is 5.70. Further, the Emax on NOX2 (value in parentheses) turned out to be 80%.
Regarding `CC(C)n1c(=S)[nH]c2cc3c(cc2c1=O)OCCO3` [TG6-272], on NOX2, the pIC50 was 6.15.
Consider `CCCN(CCC)CCCn1c(SCC(=O)Nc2nc(-c3cccc(Br)c3)cs2)nc2ccccc2c1=O` [AS173b], for which, on NOX2, the pIC50 is < 4.70. For the same compound, the Emax at NOX2 (value in parentheses) stood at 40%.
`CSc1nc2ccc(F)cc2c(=O)n1CCC[N+](C)(C)C` [TG6-103-2]: the pIC50 at NOX2 was 6.00. In addition, at NOX2 (value in parentheses), the Emax stood at 100%.
As to `Nn1c(=S)[nH]c2cc3c(cc2c1=O)OCO3` [AS2-014b], on NOX2, the pIC50 was 6.22.
On the same count and under the same terms, the value for `CN(C)CCCn1c(=S)[nH]c2c(c1=O)CCCC2` [AS-259] was 5.12; that for `CN(C)CCCn1c(=S)[nH]c2cc3c(cc2c1=O)OCCO3` [TG6-290-1] was 6.10.
`COC(=O)c1ccc2c(=O)n(N)c(=S)[nH]c2c1` [AS-261B]: the pIC50 at NOX2 was 6.30.
